Patent US20220071932A1, “Compositions and Methods Against Stress-Induced Affective Disorders and Their Associated Symptoms” (The Trustees of Columbia University in the City of New York, priority 2019, published 2022)

How the values were obtained:
[1] = system: 129S6/SvEv mice; assay: Open field (OF); type: in vivo; conditions: for Open Field, Distance Travelled Min 1 (cm), p (Fisher's LSD) / Open Field, Distance Travelled Min 2 (cm), p (Fisher's LSD): cohort 5 min before re-exposure 1, FIG. 9L
Method: (§1) The OF assay was administered as previously described (47). Briefly, motor activity was quantified in 4 Plexiglas open field boxes 43×43 cm^2 (MED Associates, Georgia, Vt.). Two sets of 16 pulse-modulated infrared photobeams on opposite walls 2.5-cm apart recorded x-y ambulatory movements. Activity chambers were computer interfaced for data sampling at 100-ms resolution. The computer defined grid lines that dividing center and surround regions, with the center square consisting of four lines 11 cm from the wall.

[2] = system: 129S6/SvEv mice; assay: Marble burying (MB); type: in vivo; conditions: for p, Fisher's PLSD Saline vs. drug, MB Marbles Buried (no.): drug 5 minutes after stress, FIG. 2K; for number of marbles buried: vs saline
Method: (§2) The MB assay was conducted in a clean cage (10.5 in×5.5 in) containing soft pliable Beta Chip bedding (Northeastern Products Corp, Warrensburg, N.Y.). The cage contained 16 marbles set up in 4 rows of 4 across. Mice were given 30 minutes to explore and bury. At the end of the assay, the percentage of marbles buried was calculated.

[3] = system: 129S6/SvEv mice; assay: Elevated plus maze (EPM); type: in vivo; conditions: for distance travelled in the EPM / time spent in the open arms and center of the EPM: (R,S)-ketamine 30 mg/kg, FENM 10, 20 or 30 mg/kg
Method: (§3) Testing was performed as previously described (47). Briefly, the maze is a plus-cross-shaped apparatus consisting of four arms, two open and two enclosed by walls, linked by a central platform at a height of 50 cm from the floor. Mice were individually placed in the center of the maze facing an open arm and were allowed to explore the maze for 5 min. The time spent in and the number of entries into the open arms was used as an anxiety index. Videos were scored using ANY-maze behavior tracking software (Stoelting, Wood Dale, Ill.).

[4] = system: NR2A subunit of the NMDAR; assay: Western blotting of hippocampus after fear memory recall; type: in vivo, mice; conditions: one week prior to CFC, (R,S)-ketamine 30 mg/kg, FENM 20 mg/kg, vs saline
Method: Samples from mouse hippocampus and prefrontal cortex were dissected, snap frozen, and stored at −80° C. Brain tissue was homogenized in RIPA buffer with protease inhibitor (Thermo Fisher Scientific, Waltham, Mass.; Roche, Basel, Switzerland) using a motorized pestle mixer (Argos Technologies, Vernon Hills, Ill.) and spun at 1000 g×14 minutes to remove cell debris. Protein concentration was determined using a Bradford protein assay (Bio-Rad, Hercules, Calif.). 4× Laemmli buffer and β-mercaptoethanol (Bio-Rad, Hercules, Calif.) was added to the samples, which were then boiled at 90° C. for five minutes. 50 μg of each sample was separated by SDS/PAGE, and proteins were transferred onto PVDF membrane (GE Healthcare Life Sciences, Marlborough, Mass.). Membranes were then blocked in 1×TBS with 0.1% Tween-20 and 5% BSA for 1 hr at RT. Incubation with primary antibodies was performed at 4° C. overnight (rabbit anti-β-tubulin, 1:10000, Abc am, Cambridge, UK, ab6046; rabbit anti-NR2A, 1:1000, Alomone Labs, Jerusalem, Israel, AGC-002; rabbit anti-NR2B, 1:600, Alomone Labs, Jerusalem, Israel, AGC-003; mouse anti-GluR1, 1:1000, Millipore Sigma, Burlington, Mass., MAB2263) in 1×TBS with 0.1% Tween-20 and 5% BSA. […]

[5] = system: 129S6/SvEv mice; assay: Anxiety-like behavior, summary of anxiety tests (OF, MB, EPM); type: in vivo; conditions: for behavior in all anxiety tests, with the exception of the time spent in the center of the OF: 5 min after context re-exposure 1; for behavior in all anxiety tests, with the exception of the time spent in the center of the OF / behavior in all anxiety tests: (R,S)-ketamine 30 mg/kg, FENM 20 mg/kg, vs saline; for behavior in all anxiety tests: 5 minutes prior to context re-exposure 1 (24 h after CFC)
Method: as §3, §1, §2

[6] = 1 week prior to CFC, (R,S)-ketamine 30 mg/kg, FENM 10, 20 or 30 mg/kg, vs saline
[7] = 5 min prior to CFC, (R,S)-ketamine 30 mg/kg, FENM 20 mg/kg, vs saline
[8] = Fisher's PLSD after RMANOVA, drug 5 minutes after stress, FENM 20 mg/kg, (R,S)-ketamine 30 mg/kg, FIG. 3L
[9] = Fisher's PLSD, drug 5 minutes after stress, (R,S)-ketamine 30 mg/kg vs. FENM 20 mg/kg
[10] = Fisher's PLSD, drug 5 minutes after stress, FENM 20 mg/kg, (R,S)-ketamine 30 mg/kg
[11] = non-stressed mice, FENM 20 mg/kg 1 hour before the start of the OF, vs saline
[12] = 5 minutes after CFC, re-exposure 5 days after training, vs saline
[13] = Saline vs. (R,S)-ketamine (30 mg/kg)

Structure (SMILES): NC12CC3CC(C1)CC(CCF)(C3)C2 [FENM, 1-amino-3-fluoroethyl-adamantane]
- distance travelled in the OF [1, 6]: did not alter
- time spent in the center of the OF arena [1, 6]: did not alter
- time spent in the center of the OF ([1]; 5 min after context re-exposure 1, FENM 20 mg/kg, vs saline): significantly increased
- distance travelled in the OF [1, 7]: did not alter
- time spent in the center of the OF arena [1, 7]: did not alter
- Open Field, Distance Travelled Min 1 (cm), p (Fisher's LSD) ([1]; (R,S)-ketamine (30 mg/kg) vs. FENM (20 mg/kg)): 0.0129
- p, Distance Travelled (cm), OF, (R,S)-ketamine vs. FENM ([1]; Fisher's PLSD after RMANOVA, drug 5 minutes after stress, (R,S)-ketamine 30 mg/kg vs. FENM 20 mg/kg, FIG. 3L): 0.8632
- p, Distance Travelled (cm), OF, Saline vs. drug [1, 8]: 0.7967
- p, Distance Travelled Min 1 (cm), OF, (R,S)-ketamine vs. FENM [1, 9]: 0.5911
- p, Distance Travelled Min 2 (cm), OF, (R,S)-ketamine vs. FENM [1, 9]: 0.8997
- p, Distance Travelled Min 3 (cm), OF, (R,S)-ketamine vs. FENM [1, 9]: 0.5565
- p, Distance Travelled Min 4 (cm), OF, (R,S)-ketamine vs. FENM [1, 9]: 0.7043
- p, Distance Travelled Min 5 (cm), OF, (R,S)-ketamine vs. FENM [1, 9]: 0.5847
- p, Distance Travelled Min 6 (cm), OF, (R,S)-ketamine vs. FENM [1, 9]: 0.7385
- p, Distance Travelled Min 7 (cm), OF, (R,S)-ketamine vs. FENM [1, 9]: 0.4416
- p, Distance Travelled Min 8 (cm), OF, (R,S)-ketamine vs. FENM [1, 9]: 0.7658
- p, Distance Travelled Min 9 (cm), OF, (R,S)-ketamine vs. FENM [1, 9]: 0.8899
- p, Distance Travelled Min 10 (cm), OF, (R,S)-ketamine vs. FENM [1, 9]: 0.9456
- p, Distance Travelled Min 1 (cm), OF, Saline vs. drug [1, 10]: 0.0158
- p, Distance Travelled Min 2 (cm), OF, Saline vs. drug [1, 10]: 0.0068
- p, Distance Travelled Min 3 (cm), OF, Saline vs. drug [1, 10]: 0.4093
- p, Distance Travelled Min 4 (cm), OF, Saline vs. drug [1, 10]: 0.4054
- p, Distance Travelled Min 5 (cm), OF, Saline vs. drug [1, 10]: 0.1372
- p, Distance Travelled Min 6 (cm), OF, Saline vs. drug [1, 10]: 0.5067
- p, Distance Travelled Min 7 (cm), OF, Saline vs. drug [1, 10]: 0.4644
- p, Distance Travelled Min 8 (cm), OF, Saline vs. drug [1, 10]: 0.0809
- p, Distance Travelled Min 9 (cm), OF, Saline vs. drug [1, 10]: 0.0040
- p, Distance Travelled Min 10 (cm), OF, Saline vs. drug [1, 10]: 0.5094
- Open Field, Distance Travelled Min 1 (cm), p (Fisher's LSD) ([1]; Saline vs. FENM (20 mg/kg)): 0.1253
- Open Field, Distance Travelled Min 2 (cm), p (Fisher's LSD) ([1]; Saline vs. FENM (20 mg/kg)): 0.0385
- distance travelled in the OF [1, 11]: comparable
- time in the center of the OF [1, 11]: comparable
- time in the periphery of the OF [1, 11]: comparable
- p, Distance Travelled (cm), OF, Saline vs. FENM ([1]; t-test, Baseline, anxiety cohort, FENM 20 mg/kg, FIG. 7C): 0.1878
- p, Time in Center (sec), OF, Saline vs. FENM ([1]; t-test, Baseline, anxiety cohort, FENM 20 mg/kg, FIG. 7D): 0.1241
- p, Time in Periphery (sec), OF, Saline vs. FENM ([1]; t-test, Baseline, anxiety cohort, FENM 20 mg/kg, FIG. 7E): 0.1225
- p, Fisher's PLSD Saline vs. drug, MB Marbles Buried (no.) ([2]; 10 mg/kg): 0.0737
- p, Fisher's PLSD Saline vs. drug, MB Marbles Buried (no.) ([2]; 30 mg/kg): 0.0097
- number of marbles buried ([2]; 5 minutes after CFC, re-exposure 5 days after training, FENM 20 and 30 mg/kg, (R,S)-ketamine 30 mg/kg): decreased the number of marbles buried
- p, Fisher's PLSD Saline vs. drug, MB Marbles Buried (no.) ([2]; dose (20)): 0.0002
- number of marbles buried ([2]; non-stressed mice, FENM 20 mg/kg 1 hour before the start of the OF): did not affect
- p, Marbles Buried (no.), MB, Saline vs. FENM ([2]; t-test, Baseline, anxiety cohort, FENM 20 mg/kg, FIG. 7F): 0.4657
- distance travelled in the EPM ([3]; 1 week prior to CFC, vs saline): did not alter
- time spent in the open arms and center of the EPM ([3]; 1 week prior to CFC, vs saline): did not alter
- distance travelled in the EPM [3, 12]: did not alter
- time spent in the open arms and center of the EPM [3, 12]: did not alter
- time in the open arms, closed arms, and center of the EPM [3, 11]: comparable
- p, Time in Open Arms (sec), EPM, Saline vs. FENM ([3]; t-test, Baseline, anxiety cohort, FENM 20 mg/kg, FIG. 7G): 0.5729
- p, Time in Closed Arms (sec), EPM, Saline vs. FENM ([3]; t-test, Baseline, anxiety cohort, FENM 20 mg/kg, FIG. 7H): 0.5729
- p, Time in Center (sec), EPM, Saline vs. FENM ([3]; t-test, Baseline, anxiety cohort, FENM 20 mg/kg, FIG. 7I): 0.3211
- NR2A expression in the hippocampus [4]: comparable
- behavior in all anxiety tests, with the exception of the time spent in the center of the OF [5]: did not alter behavior
- behavior in all anxiety tests [5]: did not alter behavior
- Behavior: Anxiety-like ([5]; Antidepressant (5 min after stress), dose 20 mg/kg): ↓
- Behavior: Anxiety-like ([5]; Antidepressant (5 min after stress), dose 30 mg/kg): ↓
- Behavior: Anxiety-like ([5]; Extinction (5 min after re-exposure 1), dose 20 mg/kg): ↓

Structure (SMILES): CNC1(c2ccccc2Cl)CCCCC1=O (racemic) [(R,S)-ketamine, reference compound]
- distance travelled in the OF [1, 6]: did not alter
- time spent in the center of the OF arena [1, 6]: did not alter
- distance travelled in the OF [1, 7]: did not alter
- time spent in the center of the OF arena [1, 7]: did not alter
- p, Distance Travelled (cm), OF, Saline vs. drug [1, 8]: 0.9319
- p, Distance Travelled Min 1 (cm), OF, Saline vs. drug [1, 10]: 0.0589
- p, Distance Travelled Min 2 (cm), OF, Saline vs. drug [1, 10]: 0.0098
- p, Distance Travelled Min 3 (cm), OF, Saline vs. drug [1, 10]: 0.1586
- p, Distance Travelled Min 4 (cm), OF, Saline vs. drug [1, 10]: 0.6504
- p, Distance Travelled Min 5 (cm), OF, Saline vs. drug [1, 10]: 0.3454
- p, Distance Travelled Min 6 (cm), OF, Saline vs. drug [1, 10]: 0.7410
- p, Distance Travelled Min 7 (cm), OF, Saline vs. drug [1, 10]: 0.1344
- p, Distance Travelled Min 8 (cm), OF, Saline vs. drug [1, 10]: 0.1467
- p, Distance Travelled Min 9 (cm), OF, Saline vs. drug [1, 10]: 0.0061
- p, Distance Travelled Min 10 (cm), OF, Saline vs. drug [1, 10]: 0.4667
- Open Field, Distance Travelled Min 1 (cm), p (Fisher's LSD) [1, 13]: 0.3306
- Open Field, Distance Travelled Min 2 (cm), p (Fisher's LSD) [1, 13]: 0.5200
- p, Fisher's PLSD Saline vs. drug, MB Marbles Buried (no.) ([2]; 30 mg/kg): 0.7292
- distance travelled in the EPM ([3]; 1 week prior to CFC, vs saline): did not alter
- time spent in the open arms and center of the EPM ([3]; 1 week prior to CFC, vs saline): did not alter
- distance travelled in the EPM [3, 12]: did not alter
- time spent in the open arms and center of the EPM [3, 12]: did not alter
- NR2A expression in the hippocampus [4]: comparable
- behavior in all anxiety tests, with the exception of the time spent in the center of the OF [5]: did not alter behavior
- behavior in all anxiety tests [5]: did not alter behavior
